According to patent US20240156856A1, “NOVEL APPLICATIONS OF HYALURONIC ACID FOR TREATMENT OF PAIN AND PRURITIS” (THE REGENTS OF THE UNIVERSITY OF CALIFORNIA, priority 2022, published 2024):
“Also recorded” adds a separate entry of the source.

What was measured:
[1] = tested on: rats with oxaliplatin CIPN; test: Oxaliplatin CIPN mechanical hyperalgesia, Randall-Selitto paw-withdrawal test; type: in vivo, Sprague-Dawley rats
Method: (§1) Experimental animals. Experiments were performed on 220-400 g male and female Sprague-Dawley rats, purchased from Charles River Laboratories (Hollister, CA, USA), housed three per cage, under a 12-hour light/dark cycle, in a temperature- and humidity-controlled animal care facility at the University of California, San Francisco. Food and water were available ad libitum. Experimental protocols were approved by the University of California, San Francisco, Institutional Animal Care and Use Committee, and adhered to the National Institutes of Health Guidelines for the care and use of laboratory animals.
(§2) Measurement of nociceptive threshold. Mechanical nociceptive threshold was quantified with an Ugo Basile Analgesymeter (Stoelting, Wood Dale, IL, USA), used to perform the Randall-Selitto paw-withdrawal test [61; 68; 69]. This device uses a dome-shaped plinth to apply a mechanical force that increases linearly with time, to the dorsum of a rat's hindpaw. To perform the Randall-Selitto paw-withdrawal test, rats were placed in cylindrical acrylic restrainers with lateral ports that allow access to the hind paw, as described previously. Rats were acclimatized to the testing procedure by placing them in restrainers for 1 h per day for 3 consecutive daily training sessions, and for 30-40 min prior to experiments.
(§3) Mechanical nociceptive threshold is defined as the force, in grams, applied by the plinth to the dorsum of the hindpaw, at which a rat withdraws its paw from the stimulus. Baseline paw-withdrawal threshold is defined as the mean of three readings taken before administration of test agents. To minimize experimenter bias, individuals conducting experiments were blinded to experimental treatments. Each experiment was performed on a different group of rats. Data are presented as mechanical nociceptive threshold, in grams (g) or percentage change from preintervention baseline.
Hyaluronans were initially dissolved in distilled water (dH2O) at a concentration of 10 μg/μL, stock solution, and further diluted by adding DMSO with three final concentrations of hyaluronan (1, 2 and 4 μg/μL), protamine or terpene; unless otherwise stated, the final concentration of DMSO was 75%. The DMSO vehicle was 75% DMSO in 0.9% saline. In one experiment, 500-1200 kDa hyaluronan was administered topically in 0.9% saline vehicle. PGE2 was dissolved in 0.9% saline at the same final concentration that we previously injected intradermally (100 ng/5 μL). In the experiments in which hyaluronan was dissolved in protamine or terpene vehicle, protamine was first dissolved in distilled water (dH2O) to a concentration of 5 μg/μ1, stock solution of hyaluronan was combined with protamine at the final concentration of 2 μg/μ1, in a volume of 3 μl, for topical administration; terpene was first dissolved in dH2O at the concentration of 2 μg/μ1, then hyaluronan was dissolved in stock solution of terpene to its final concentration of 2 μg/μ1, in a volume of 3 μl, for topical administration).
Oxaliplatin CIPN: Oxaliplatin was freshly dissolved in 0.9% saline at a concentration of 2 mg/mL just prior to its tail vein intravenous (i.v.) administration (1 mL/kg), to rats briefly anesthetized with isoflurane (2.5% in O2).
Hyaluronans (30 μL) were administered topically on the dorsum of the hind paw, dispensed from a P200 pipette (Gilson, Middleton, WI, USA) with a plastic pipette tip and then spread manually. […]
Before use, ODNs were reconstituted in nuclease-free 0.9% saline and then administered by the intrathecal (i.t.) route. As described previously, rats were anesthetized with isoflurane (2.5% in O2) and 120 μg of ODN, in a volume of 20 μL, injected i.t., using a syringe ([…]) attached to a 29-gauge hypodermic needle that was inserted into the subarachnoid space, between the L4 and L5 vertebrae. The i.t. site of the injectate was confirmed by a sudden flick of the rat's tail, a reflex evoked by subarachnoid space access and bolus i.t. injection. […]

[2] = tested on: rats with bortezomib CIPN; test: Bortezomib CIPN mechanical hyperalgesia, Randall-Selitto paw-withdrawal test; type: in vivo, Sprague-Dawley rats; settings: topical 2 μg/μL
Method: as §1, §2
as §3, with “baseline. […]” for “baseline.”

[3] = tested on: 5-HT-induced scratching behavior in rats; test: 5-HT-induced scratching (itch) behavior; type: in vivo; settings: topical, protamine vehicle
Method: Topical hyaluronan attenuates itch behavior in rats. Intradermal administration of serotonin (5-HT) elicited acute scratching behavior, using the method of Nojima and Carstens {Nojima and Carstens, 2003, #99335; PMID: 12814838}. Rats were acclimated to a testing chamber for 30 min, and then briefly anesthetized with 2% isoflurane, during which the fur over the nape of the neck was shaved, and 5-HT (200 μg in 10 μl 0.9% saline vehicle) injected with a 30 gauge needle. In the topical hyaluronan group, hyaluronan (100 μg in 50 μl 75% DMSO in water vehicle) was applied to the skin 30 mins and again 5 mins before administration of 5-HT. Rats were placed back into testing chambers and their behavior video recorded for 40 min. Number of hind paw scratches directed at the injection site were counted by watching video playback at half normal speed, and total number of scratches in 2-min intervals recorded. Rats were treated with 5-HT alone and topical hyaluronan with 5-HT, with 4 days between experimental sessions, allowing for use of paired t-tests to compare data. Data are presented as cumulative number of scratches (FIG. 9A), and as total scratches over the 40-min observation period (FIG. 9B). […] See also, FIG. 10, which includes additional data showing that topical hyaluronan attenuates 5-HT-induced scratching behavior. […] Data are presented as cumulative number of scratches.

[4] = tested on: rats; settings: previously shown; cited from earlier work

hyaluronan [500-1200 kDa hyaluronan]
duration of anti-hyperalgesic effect after initial topical application ([1]; CIPN rats, initial application, DMSO vehicle): approximately 60 minutes | hyperalgesia induced by oxaliplatin ([1]; female rats given i.t. GPR30 antisense or mismatch ODN, topical 2 μg/μL, 30 μL): attenuated the hyperalgesia induced by oxaliplatin only in the GPR30 antisense-treated group | hyperalgesia induced by oxaliplatin ([1]; gonad intact female rats, topical 2 μg/μL, 30 μL in DMSO vehicle): did not attenuate hyperalgesia | hyperalgesia induced by oxaliplatin ([1]; male rats given i.t. CD44 antisense or mismatch ODN, topical 2 μg/μL, 30 μL in DMSO): only attenuated the hyperalgesia induced by oxaliplatin in the CD44 mismatch-treated group | CIPN hyperalgesia, effect of hyaluronan molecular weight range ([1]; male rats with oxaliplatin CIPN, topical, combined with DMSO): produced robust anti-hyperalgesia, of similar magnitude and duration | time at which anti-hyperalgesia was still present after the second administration ([1]; male rats, reapplied at the same site after first effect wore off, DMSO vehicle): ≥ 180 min | oxaliplatin CIPN hyperalgesia ([1]; male rats, topical 1 μg/μL, 30 μL in DMSO, day 7): only attenuates CIPN hyperalgesia 10 min after application | oxaliplatin CIPN hyperalgesia ([1]; male rats, topical 2 μg/μL in 0.9% saline, without DMSO): did not attenuate oxaliplatin CIPN hyperalgesia | anti-hyperalgesia in oxaliplatin CIPN ([1]; male rats, topical 2 μg/μL, 30 μL in 5% DMSO): did not produce anti-hyperalgesia | anti-hyperalgesia in oxaliplatin CIPN ([1]; male rats, topical 2 μg/μL, 30 μL in 15% DMSO): did not produce anti-hyperalgesia | anti-hyperalgesia in oxaliplatin CIPN ([1]; male rats, topical 2 μg/μL, 30 μL in 20% DMSO): produced anti-hyperalgesia | anti-hyperalgesia in oxaliplatin CIPN ([1]; male rats, topical 2 μg/μL, 30 μL in 25% DMSO): produced anti-hyperalgesia | anti-hyperalgesia in oxaliplatin CIPN ([1]; male rats, topical 2 μg/μL, 30 μL in 50% DMSO): produced anti-hyperalgesia | anti-hyperalgesia in oxaliplatin CIPN ([1]; male rats, topical 2 μg/μL, 30 μL in 75% DMSO): produced anti-hyperalgesia | oxaliplatin CIPN hyperalgesia ([1]; male rats, topical 2 μg/μL, 30 μL in DMSO, day 7): attenuated hyperalgesia 10, 30 and 60 min after application; also recorded: induced anti-hyperalgesia | time by which anti-hyperalgesia dissipated, first administration ([1]; male rats, topical 2 μg/μL, 30 μL in DMSO, repeated-administration experiment): ≤ 120 min | oxaliplatin CIPN hyperalgesia ([1]; male rats, topical 4 μg/μL, 30 μL in DMSO, day 7): attenuated hyperalgesia 10, 30 and 60 min after application | time after application by which the anti-hyperalgesic effect dissipated ([1]; male rats, topical 2 and 4 μg/μL in DMSO): ≤ 120 min | anti-hyperalgesia in oxaliplatin-induced CIPN ([1]; ovariectomized female rats, topical 2 μg/μL, 30 μL in DMSO): induced anti-hyperalgesia of similar magnitude to that observed in gonad intact male rats | hyperalgesia induced by bortezomib ([2]; female rats, 30 μL in DMSO vehicle): did not attenuate hyperalgesia | hyperalgesia induced by bortezomib ([2]; male rats, 30 μL in DMSO, day 7): attenuated hyperalgesia induced by bortezomib | number of 5-HT-induced scratches ([3]; female rats): significantly attenuated the number of 5-HT-induced scratches | number of 5-HT-induced scratches ([3]; male rats): significantly attenuated the number of 5-HT-induced scratches | nociceptive effect of intradermal injection [4]: induced anti-hyperalgesia
